Laboratory results from ChEMBL document CHEMBL1201862, “PubChem BioAssay data set” (2004).
Activity calls are given as the source filed them.

Assays:
[1] = biological target: Luciferin 4-monooxygenase (Photinus pyralis, UniProt P08659); test: firefly luciferase enzyme inhibitors, dose response, biochemical, luminescence (AID 1891)
[2] = Luminescence Cell-Based Dose Confirmation HTS to Identify Inhibitors of Platelet Dense Granule Release. [Related pubchem assays: 1663 (Primary HTS), 1678 (Summary of Project)]; format: functional
HeLa [3] = test: HeLa cell cytotoxicity, dose response, cytotoxicity control for MITF activator project, CellTiter-Glo luminescence, cherry-pick samples (AID 540259); format: functional, cell-based; details: Homo sapiens
[4] = inhibitors of firefly luciferase expression or activity, dose response, H4 neuroglioma cells, luminescence (AID 1990); format: functional, cell-based
HEK293 [5] = test: NOD1 signaling inhibitors, primary screen, cell-based, luminescence, uHTS (AID 1578); format: functional; details: Homo sapiens
HEK293 [6] = test: cells; format: functional, cell-based; details: Homo sapiens
[7] = Luminescence Cell-Based Dose Response HTS to Identify Inhibitors of 5'UTR Stem-Loop Driven Prion Protein mRNA Translation in H4 Neuroglioblastoma Cells. [Related pubchem assays: 1827 (Project Summary), 1813 (Primary HTS)]; format: functional
[8] = inhibitors of SNCA 5'UTR-driven reporter translation, confirmation, H4 neuroglioma cells, luminescence (AID 1988); format: functional, cell-based
HEK293 [9] = test: cells; format: functional, cell-based; details: Homo sapiens; remark: listed apart in the source
[10] = biological target: Nucleotide-binding oligomerization domain-containing protein 2 (Homo sapiens, UniProt Q9HC29); test: NOD2 signaling inhibitors, cell-based, luminescence, uHTS, HEK293 (AID 1566); format: functional
Sequence of Nucleotide-binding oligomerization domain-containing protein 2 (Q9HC29 whole entry, the tested form may be a part): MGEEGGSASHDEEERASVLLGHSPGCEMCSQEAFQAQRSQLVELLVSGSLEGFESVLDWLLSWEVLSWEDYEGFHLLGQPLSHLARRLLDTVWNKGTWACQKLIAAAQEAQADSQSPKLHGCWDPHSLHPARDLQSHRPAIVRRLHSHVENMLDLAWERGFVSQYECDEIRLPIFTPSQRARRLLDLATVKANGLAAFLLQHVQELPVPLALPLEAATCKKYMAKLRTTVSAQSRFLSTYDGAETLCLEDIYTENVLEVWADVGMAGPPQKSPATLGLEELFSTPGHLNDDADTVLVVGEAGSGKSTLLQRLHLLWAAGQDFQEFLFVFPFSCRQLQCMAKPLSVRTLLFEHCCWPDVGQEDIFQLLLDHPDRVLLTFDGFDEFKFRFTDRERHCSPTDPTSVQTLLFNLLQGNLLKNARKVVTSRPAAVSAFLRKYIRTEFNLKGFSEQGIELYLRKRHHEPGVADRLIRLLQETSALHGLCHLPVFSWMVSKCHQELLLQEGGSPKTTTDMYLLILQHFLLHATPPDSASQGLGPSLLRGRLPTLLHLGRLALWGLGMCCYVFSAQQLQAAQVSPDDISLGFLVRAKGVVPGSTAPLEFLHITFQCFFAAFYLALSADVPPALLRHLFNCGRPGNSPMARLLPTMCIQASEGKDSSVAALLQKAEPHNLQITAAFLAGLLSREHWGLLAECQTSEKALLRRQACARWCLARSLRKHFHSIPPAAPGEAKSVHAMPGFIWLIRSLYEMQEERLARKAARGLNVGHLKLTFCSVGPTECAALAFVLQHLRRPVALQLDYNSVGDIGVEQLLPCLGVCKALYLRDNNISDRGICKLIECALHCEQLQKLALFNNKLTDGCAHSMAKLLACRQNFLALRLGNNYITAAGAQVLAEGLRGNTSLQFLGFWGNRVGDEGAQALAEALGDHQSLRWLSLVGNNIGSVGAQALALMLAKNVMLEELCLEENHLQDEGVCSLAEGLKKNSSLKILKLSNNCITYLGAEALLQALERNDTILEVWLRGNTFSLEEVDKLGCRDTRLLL

HEK293 [11] = test: NOD2 signaling inhibitors in MDP-stimulated cells, cell-based, uHTS, luminescence (AID 2001); format: functional; details: Homo sapiens
HEK293 [12] = test: cells; format: functional, cell-based; details: Homo sapiens; remark: listed apart in the source
[13] = biological target: T1, RNA-binding protein pos-1 (Caenorhabditis elegans, UniProt G5EF15); test: inhibitors of POS-1/mex-3 RNA binding, dose response, biochemical, fluorescence polarization (AID 1964);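 also: purified POS-1 fused to maltose binding protein made in E. coli; potency of compounds blocking POS-1 binding to fluorescent RNA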
T1 sequence (G5EF15 whole entry): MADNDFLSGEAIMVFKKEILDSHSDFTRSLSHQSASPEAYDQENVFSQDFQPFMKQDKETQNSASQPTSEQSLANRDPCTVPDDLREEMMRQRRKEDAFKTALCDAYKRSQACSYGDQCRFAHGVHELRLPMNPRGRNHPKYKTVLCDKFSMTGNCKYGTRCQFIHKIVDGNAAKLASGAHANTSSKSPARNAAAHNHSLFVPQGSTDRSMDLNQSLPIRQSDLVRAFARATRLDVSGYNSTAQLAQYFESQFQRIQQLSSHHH

[14] = biological target: T2, Zinc finger protein mex-5 (Caenorhabditis elegans, UniProt Q9XUB2); test: MEX-5/TCR-2 RNA interaction inhibitors, dose response, biochemical, C. elegans, fluorescence polarization (AID 1960)
T2 sequence (Q9XUB2 whole entry): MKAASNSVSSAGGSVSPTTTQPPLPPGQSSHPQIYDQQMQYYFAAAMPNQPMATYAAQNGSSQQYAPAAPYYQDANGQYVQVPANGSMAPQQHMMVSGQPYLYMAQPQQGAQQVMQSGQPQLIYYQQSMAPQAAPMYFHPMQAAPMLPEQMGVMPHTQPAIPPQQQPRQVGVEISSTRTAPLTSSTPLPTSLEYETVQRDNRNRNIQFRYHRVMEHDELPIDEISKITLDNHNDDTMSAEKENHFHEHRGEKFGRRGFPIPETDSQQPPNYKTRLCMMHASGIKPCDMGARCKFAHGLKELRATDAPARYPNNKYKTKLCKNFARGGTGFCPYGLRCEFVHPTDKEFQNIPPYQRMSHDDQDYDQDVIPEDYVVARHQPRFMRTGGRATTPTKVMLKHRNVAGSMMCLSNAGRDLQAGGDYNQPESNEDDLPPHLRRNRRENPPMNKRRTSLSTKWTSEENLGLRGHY

Beta-lactamase [15] = biological target: Beta-lactamase (Pseudomonas aeruginosa, UniProt Q79MP6);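 also: biochemical dose-response test of metallo-beta-lactamase enzyme inhibition, read out by epi-absorbance; purified recombinant IMP-1 metallo-beta-lactamase with nitrocefin as substrate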
Beta-lactamase [16] = biological target: Beta-lactamase (Salmonella choleraesuis (strain SC-B67), UniProt Q5J463)
[17] = biological target: UDP-galactopyranose mutase (Mycobacterium tuberculosis, UniProt P9WIQ1); test: Inhibitors of Mycobacterium tuberculosis UDP-galactopyranose mutase (UGM) enzyme Measured in Biochemical System Using Plate Reader - 2105-02_Inhibitor_Dose_CherryPick_Activity. [Related pubchem assays (depositor defined):AID504439]
Sequence of UDP-galactopyranose mutase (P9WIQ1 whole entry): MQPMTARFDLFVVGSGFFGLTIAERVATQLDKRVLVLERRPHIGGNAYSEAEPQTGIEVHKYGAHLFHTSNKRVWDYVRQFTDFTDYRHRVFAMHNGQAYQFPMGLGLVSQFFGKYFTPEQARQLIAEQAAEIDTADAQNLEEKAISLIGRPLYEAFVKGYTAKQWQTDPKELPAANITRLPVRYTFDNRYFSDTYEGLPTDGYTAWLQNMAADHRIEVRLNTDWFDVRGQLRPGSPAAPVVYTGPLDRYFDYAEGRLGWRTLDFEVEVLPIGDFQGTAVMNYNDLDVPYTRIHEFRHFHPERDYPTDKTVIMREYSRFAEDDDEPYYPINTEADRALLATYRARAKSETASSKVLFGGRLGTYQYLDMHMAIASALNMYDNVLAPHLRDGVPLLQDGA

Keap1/Nrf2 = Keap1/Nrf2 (Homo sapiens, UniProt Q14145); test: Keap1-Nrf2 protein-protein interaction inhibitors, dose response, biochemical, fluorescence polarization, cherry-picked samples (AID 588683)
Sequence of Keap1/Nrf2 (Q16236 whole entry): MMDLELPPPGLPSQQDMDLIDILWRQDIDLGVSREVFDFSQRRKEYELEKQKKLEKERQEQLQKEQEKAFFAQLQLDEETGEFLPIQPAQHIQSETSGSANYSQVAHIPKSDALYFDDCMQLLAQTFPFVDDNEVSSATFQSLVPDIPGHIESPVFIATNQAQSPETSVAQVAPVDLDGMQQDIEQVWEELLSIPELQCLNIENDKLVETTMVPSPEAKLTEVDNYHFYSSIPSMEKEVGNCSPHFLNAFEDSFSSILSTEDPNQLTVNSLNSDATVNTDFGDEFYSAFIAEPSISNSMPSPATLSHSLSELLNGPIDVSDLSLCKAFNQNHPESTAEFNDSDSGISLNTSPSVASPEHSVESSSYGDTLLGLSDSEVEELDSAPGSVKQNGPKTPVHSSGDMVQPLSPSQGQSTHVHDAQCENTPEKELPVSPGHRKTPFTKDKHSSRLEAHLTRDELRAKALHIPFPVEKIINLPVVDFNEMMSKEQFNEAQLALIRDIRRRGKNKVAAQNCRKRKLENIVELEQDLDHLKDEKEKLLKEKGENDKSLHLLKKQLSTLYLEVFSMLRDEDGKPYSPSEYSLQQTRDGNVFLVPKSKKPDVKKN
Sequence of Keap1/Nrf2 (Q14145 whole entry): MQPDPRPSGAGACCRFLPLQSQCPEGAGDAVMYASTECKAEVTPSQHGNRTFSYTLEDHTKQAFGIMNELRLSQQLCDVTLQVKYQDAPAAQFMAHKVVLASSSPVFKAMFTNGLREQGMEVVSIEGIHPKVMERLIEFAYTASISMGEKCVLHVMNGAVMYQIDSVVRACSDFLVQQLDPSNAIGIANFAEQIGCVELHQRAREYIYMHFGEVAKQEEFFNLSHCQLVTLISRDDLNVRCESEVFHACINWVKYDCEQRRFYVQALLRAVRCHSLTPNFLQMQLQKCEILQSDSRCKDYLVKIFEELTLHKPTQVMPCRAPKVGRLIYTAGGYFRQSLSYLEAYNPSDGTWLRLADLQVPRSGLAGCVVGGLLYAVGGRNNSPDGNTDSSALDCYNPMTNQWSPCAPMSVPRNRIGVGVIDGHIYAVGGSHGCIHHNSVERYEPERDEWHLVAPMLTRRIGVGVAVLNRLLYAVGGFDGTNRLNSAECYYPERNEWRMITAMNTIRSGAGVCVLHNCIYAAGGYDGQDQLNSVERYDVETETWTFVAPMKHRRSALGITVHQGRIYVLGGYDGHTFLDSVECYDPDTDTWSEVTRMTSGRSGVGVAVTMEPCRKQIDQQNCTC

HEK293 [18] = test: cells; format: functional, cell-based; details: Homo sapiens; remark: listed apart in the source
[19] = biological target: T3, Nuclear receptor subfamily 0 group B member 1 (Homo sapiens, UniProt P51843); test: Luminescence-based cell-based high throughput dose response assay for inhibitors of the orphan nuclear receptor subfamily 0, group B, member 1 (DAX1; NR0B1). [Related pubchem assays (depositor defined):AID504766, AID504790]; format: functional
T3 sequence (P51843 whole entry): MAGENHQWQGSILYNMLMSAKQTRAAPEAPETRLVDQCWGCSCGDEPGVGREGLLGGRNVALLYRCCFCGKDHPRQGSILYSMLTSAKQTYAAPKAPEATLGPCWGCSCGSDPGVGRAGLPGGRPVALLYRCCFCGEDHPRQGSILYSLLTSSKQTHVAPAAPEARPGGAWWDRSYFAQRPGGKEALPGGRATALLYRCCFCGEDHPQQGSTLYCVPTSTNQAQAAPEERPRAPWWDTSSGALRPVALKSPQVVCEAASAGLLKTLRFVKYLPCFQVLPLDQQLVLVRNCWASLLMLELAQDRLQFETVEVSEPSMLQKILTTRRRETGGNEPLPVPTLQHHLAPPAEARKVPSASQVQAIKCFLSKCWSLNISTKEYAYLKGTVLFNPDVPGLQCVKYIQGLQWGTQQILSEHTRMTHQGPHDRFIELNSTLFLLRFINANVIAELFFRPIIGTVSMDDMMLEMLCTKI

Cytochrome P450 2C19 = Cytochrome P450 2C19 (Homo sapiens, UniProt P33261); test: Cytochrome panel assay with activity outcomes. Panel member name: p450-cyp2c19 Compounds with AC50 equal or less than 10 uM are considered active; format: functional
Cytochrome P450 2C9 = Cytochrome P450 2C9 (Homo sapiens, UniProt P11712)
Sequence of Cytochrome P450 2C9 (P11712 whole entry): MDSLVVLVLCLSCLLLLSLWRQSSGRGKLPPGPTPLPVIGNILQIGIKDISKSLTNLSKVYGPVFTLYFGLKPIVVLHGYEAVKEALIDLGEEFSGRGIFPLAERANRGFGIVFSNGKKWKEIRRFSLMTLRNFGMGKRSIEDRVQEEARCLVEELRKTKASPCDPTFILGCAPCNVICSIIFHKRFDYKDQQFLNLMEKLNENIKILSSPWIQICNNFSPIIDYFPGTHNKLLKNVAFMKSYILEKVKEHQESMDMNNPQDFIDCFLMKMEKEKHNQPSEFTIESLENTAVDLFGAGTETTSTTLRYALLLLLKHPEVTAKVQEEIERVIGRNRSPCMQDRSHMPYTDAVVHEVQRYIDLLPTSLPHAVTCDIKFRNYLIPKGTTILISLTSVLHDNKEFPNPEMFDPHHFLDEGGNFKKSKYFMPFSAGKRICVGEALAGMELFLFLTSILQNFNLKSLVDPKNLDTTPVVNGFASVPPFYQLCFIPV

Cytochrome P450 2D6 = Cytochrome P450 2D6 (Homo sapiens, UniProt P10635);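 also: CYP2D6 member of a cytochrome P450 panel assay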
Cytochrome P450 1A2 [20] = biological target: T4, Cytochrome P450 1A2 (Homo sapiens, UniProt P05177);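 also: PubChem cytochrome P450 panel assay, CYP1A2 panel member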
T4 sequence (P05177 whole entry): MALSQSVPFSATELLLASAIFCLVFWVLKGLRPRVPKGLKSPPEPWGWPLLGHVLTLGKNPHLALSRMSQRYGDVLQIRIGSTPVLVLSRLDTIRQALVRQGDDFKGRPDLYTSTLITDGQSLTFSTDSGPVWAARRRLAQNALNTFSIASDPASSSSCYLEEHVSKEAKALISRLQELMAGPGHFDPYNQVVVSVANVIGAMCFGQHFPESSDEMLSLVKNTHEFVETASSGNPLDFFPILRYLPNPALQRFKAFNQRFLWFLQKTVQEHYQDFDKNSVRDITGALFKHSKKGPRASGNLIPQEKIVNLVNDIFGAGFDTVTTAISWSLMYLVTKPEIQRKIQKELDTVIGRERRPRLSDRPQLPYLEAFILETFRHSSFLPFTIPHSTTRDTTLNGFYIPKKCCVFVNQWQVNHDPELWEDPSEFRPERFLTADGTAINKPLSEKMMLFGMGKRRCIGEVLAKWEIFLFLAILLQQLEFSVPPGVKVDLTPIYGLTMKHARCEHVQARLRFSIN

Cytochrome P450 3A4 = Cytochrome P450 3A4 (Homo sapiens, UniProt P08684);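 also: CYP3A4 tested as one member of a cytochrome P450 panel screen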
Sequence of Cytochrome P450 3A4 (P08684 whole entry): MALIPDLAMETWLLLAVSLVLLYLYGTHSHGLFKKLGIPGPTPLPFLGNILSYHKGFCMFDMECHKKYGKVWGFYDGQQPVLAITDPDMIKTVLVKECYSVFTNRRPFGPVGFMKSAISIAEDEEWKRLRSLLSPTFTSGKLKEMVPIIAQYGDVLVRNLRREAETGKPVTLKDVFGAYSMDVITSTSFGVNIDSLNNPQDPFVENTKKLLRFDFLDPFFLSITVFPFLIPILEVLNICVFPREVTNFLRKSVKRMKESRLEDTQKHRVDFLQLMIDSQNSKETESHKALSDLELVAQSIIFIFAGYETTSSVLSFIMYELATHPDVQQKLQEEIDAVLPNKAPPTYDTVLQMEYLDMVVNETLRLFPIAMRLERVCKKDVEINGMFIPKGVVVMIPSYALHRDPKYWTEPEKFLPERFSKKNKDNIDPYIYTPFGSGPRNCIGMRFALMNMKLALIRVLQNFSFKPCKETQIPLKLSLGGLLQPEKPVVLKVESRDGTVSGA

HeLa [21] = test: HeLa cell cytotoxicity, dose response, cytotoxicity control, 24 h, cherry-picked samples (AID 504726); format: functional, cell-based; details: Homo sapiens;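 also: potency for cytotoxicity as loss of luminescence signal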
ORF 73 = ORF 73 (Human herpesvirus 8, UniProt O40947); test: inhibitors of C-LANA binding to LBS DNA, dose response, biochemical, fluorescence polarization, cherry-picked samples (AID 504725); set-up: species or system Human gammaherpesvirus 8;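 also: fluorescence polarization of a labeled DNA duplex reporting LANA DNA binding; potency is for inhibitors that block LANA binding to the DNA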
[22] = Luminescence Cell-Based Dose Response HTS to Identify Activators of Luciferase Translation or Activity in H4 […] Cells. [Related pubchem assays: 1829 (Project Summary), 1814 (Primary HTS)]; format: functional
H4 = test: Luminescence Cell-Based Dose Response HTS to Identify Activators of 5'UTR Stem-Loop Driven Prion Protein mRNA Translation in H4 Neuroglioblastoma Cells. [Related pubchem assays: 1829 (Project Summary), 1814 (Primary HTS)]; format: functional; details: Homo sapiens
Cytochrome P450 1A2 [23] = biological target: T4, Cytochrome P450 1A2; remark: listed apart in the source
Trypsin = Trypsin (Sus scrofa, UniProt P00761); test: porcine trypsin inhibitors, dose response, selectivity assay for Rce1 protease inhibitor project, biochemical, quenched peptide fluorescence, cherry-pick (AID 488789)
Sequence of Trypsin (P00761 whole entry): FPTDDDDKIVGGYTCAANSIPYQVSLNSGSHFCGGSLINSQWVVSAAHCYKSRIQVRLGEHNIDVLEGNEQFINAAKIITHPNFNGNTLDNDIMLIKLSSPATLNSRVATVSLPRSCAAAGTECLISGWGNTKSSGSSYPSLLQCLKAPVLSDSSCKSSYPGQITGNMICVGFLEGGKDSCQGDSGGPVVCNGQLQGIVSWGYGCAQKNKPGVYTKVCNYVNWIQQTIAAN

CAAX prenyl protease 2 [24] = biological target: CAAX prenyl protease 2 (Saccharomyces cerevisiae S288c, UniProt Q03530); format: biochemical
Sequence of CAAX prenyl protease 2 (Saccharomyces cerevisiae S288c, UniProt Q03530) (Q03530 whole entry): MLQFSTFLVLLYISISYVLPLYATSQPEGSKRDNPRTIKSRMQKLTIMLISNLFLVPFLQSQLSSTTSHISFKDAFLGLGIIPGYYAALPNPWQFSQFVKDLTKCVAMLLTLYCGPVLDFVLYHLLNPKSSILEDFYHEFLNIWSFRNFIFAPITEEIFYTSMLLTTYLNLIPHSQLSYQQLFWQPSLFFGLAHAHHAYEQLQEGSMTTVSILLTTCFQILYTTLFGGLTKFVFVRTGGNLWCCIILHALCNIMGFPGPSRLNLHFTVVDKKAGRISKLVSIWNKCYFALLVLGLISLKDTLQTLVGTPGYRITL

CAAX prenyl protease 2 [25] = biological target: CAAX prenyl protease 2 (Homo sapiens, UniProt Q9Y256); test: human Rce1 protease inhibitors, dose response, biochemical, yeast membranes, quenched-peptide fluorescence, cherry-pick (AID 588849)
Sequence of CAAX prenyl protease 2 (Homo sapiens, UniProt Q9Y256) (Q9Y256 whole entry): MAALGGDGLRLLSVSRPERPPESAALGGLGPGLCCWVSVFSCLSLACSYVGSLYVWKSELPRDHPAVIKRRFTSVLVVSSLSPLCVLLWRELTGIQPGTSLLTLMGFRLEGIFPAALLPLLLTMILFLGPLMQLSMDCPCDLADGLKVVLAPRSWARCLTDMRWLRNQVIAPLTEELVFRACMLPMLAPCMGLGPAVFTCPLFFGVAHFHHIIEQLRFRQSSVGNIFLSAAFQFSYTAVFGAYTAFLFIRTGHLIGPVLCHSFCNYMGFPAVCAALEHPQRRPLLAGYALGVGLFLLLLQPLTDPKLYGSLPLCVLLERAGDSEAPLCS

CAAX prenyl protease 1 = CAAX prenyl protease 1 (Saccharomyces cerevisiae S288c, UniProt P47154); test: Ste24 protease inhibitors, dose response, biochemical, S. cerevisiae, plate reader, cherry-pick (AID 488815)
Sequence of CAAX prenyl protease 1 (P47154 whole entry): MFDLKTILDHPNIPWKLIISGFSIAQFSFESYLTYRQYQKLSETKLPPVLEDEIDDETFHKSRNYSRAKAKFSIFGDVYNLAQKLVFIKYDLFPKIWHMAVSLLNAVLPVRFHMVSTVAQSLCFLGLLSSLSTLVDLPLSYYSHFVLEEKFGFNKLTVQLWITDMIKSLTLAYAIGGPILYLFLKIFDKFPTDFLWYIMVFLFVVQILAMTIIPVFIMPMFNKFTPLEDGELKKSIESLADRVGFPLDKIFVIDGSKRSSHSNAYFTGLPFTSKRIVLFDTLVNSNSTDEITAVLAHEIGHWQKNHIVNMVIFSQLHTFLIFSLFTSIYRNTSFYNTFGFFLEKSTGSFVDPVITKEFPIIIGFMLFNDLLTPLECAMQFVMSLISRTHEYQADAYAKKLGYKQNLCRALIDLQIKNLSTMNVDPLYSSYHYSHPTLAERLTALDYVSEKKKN

COc1ccccc1NC(=O)Nc1ccc(C(=O)N2CCCCC2)cc1
EC50 [1]: 2.01 µM (active)
EC50 [2]: 6.67 µM (active)
AC50 (HeLa [3]): 67 µM (active)

CC(C)COc1ccc(C(=O)Nc2sc3c(c2C(=O)O)CC(C)(C)OC3)cc1
EC50 [4]: 11.3 µM (active)
EC50 (HEK293 [5]): 2.59 µM (active)
IC50 (HEK293 [6]): > 20 µM (inactive)
EC50 [7]: 11.2 µM (active)
EC50 [8]: > 120 µM (not active)
IC50 (HEK293 [9]): > 20 µM (inactive)
EC50 [10]: 0.22 µM (active)
IC50 (HEK293 [11]): 5.19 µM (active)
IC50 (HEK293 [12]): 12.6 µM (active)

CN1C(=O)c2cccc3c(N)ccc(c23)C1=O
EC50 [13]: 0.363 µM (inconclusive)
EC50 [14]: 0.116 µM (inconclusive)
IC50 (Beta-lactamase [15]): 10.5 µM (inactive)
IC50 (Beta-lactamase [16]): 5.56 µM (active)
AC50 [17]: 1.59 µM (active)
AC50 (Keap1/Nrf2): 0.839 µM (active)

CC(=O)NNc1ncnc2ccccc12
IC50 (HEK293 [18]): > 67.5 µM (inactive)
IC50 [19]: > 67.5 µM (inactive)

O=C(O)c1cc(/N=N\c2ccc(S(=O)(=O)Nc3ccccn3)cc2)ccc1O
AC50 (Cytochrome P450 2C19): inactive
AC50 (Cytochrome P450 2C9): 7.94 µM (inconclusive)
AC50 (Cytochrome P450 2D6): inactive
AC50 (Cytochrome P450 1A2 [20]): inactive
AC50 (Cytochrome P450 3A4): inactive

CN1C(=O)C(=N)c2c3ccccc3c(O)c3c(Br)ccc1c23
EC50 [13]: 0.66 µM (inconclusive)
EC50 [14]: < 0.06 µM (inconclusive)
AC50 (HeLa [21]): 303 µM (active)
AC50 (ORF 73): 2.73 µM (active)
AC50 [17]: 0.519 µM (active)
AC50 (Keap1/Nrf2): 0.54 µM (active)

CCn1c(C(=O)OC)cc2c1ccn2-c1ccc(F)cc1
EC50 [22]: 69.7 µM (active)
EC50 (H4): > 120 µM (not active)
AC50 (HeLa [3]): 91.9 µM (active)

COc1ccc(-n2c(=O)c(-c3ccccc3)nc3cnc(N4CCN(C)CC4)nc32)cc1
AC50 (Cytochrome P450 1A2 [23]): 20 µM (inconclusive)
AC50 (Cytochrome P450 2C9): 31.6 µM (inconclusive)
AC50 (Cytochrome P450 3A4): inconclusive

O=C(c1ccc2c(c1)N(Cc1ccccc1)C(=O)CS2)N1CCOCC1
AC50 (Cytochrome P450 2C19; read-out: AC50): 28.2 µM (inconclusive)
AC50 (Cytochrome P450 2C9): 14.1 µM (inconclusive)
AC50 (Cytochrome P450 1A2 [20]): inconclusive

CS(=O)(=O)Nc1ccc(C2=NN(S(C)(=O)=O)C(c3cccs3)C2)cc1 (stereo not given)
AC50 (Trypsin): 4.41 µM (active)
AC50 (CAAX prenyl protease 2 [24]): 6.27 µM (active)
AC50 (CAAX prenyl protease 2 [25]): 2.38 µM (active)

Cc1cc(/C=C2\SC(=S)N(C)C2=O)c(C)n1-c1cccc(O)c1
EC50 (HEK293 [5]): 9.29 µM (active)
IC50 (HEK293 [6]): 4.55 µM (active)
IC50 (HEK293 [9]): 9.54 µM (active)
EC50 [10]: 1.1 µM (active)
IC50 (HEK293 [11]): 0.695 µM (active)
IC50 (HEK293 [12]): > 20 µM (inactive)

CC1(C)Nc2ccccc2C(=O)N1c1ccc(Br)cc1
IC50 (HEK293 [18]): > 67.5 µM (inactive)
IC50 [19]: > 67.5 µM (inactive)

COCc1cc(C)n(CC(=O)NCc2ccccc2)c(=O)c1C#N
AC50 (CAAX prenyl protease 1): 7.22 µM (active)
AC50 (CAAX prenyl protease 2 [25]): 25.8 µM (active)

CN(C)C(=O)COc1ccc2ccc(=O)oc2c1
AC50 (CAAX prenyl protease 2 [24]): 41.5 µM (active)
AC50 (CAAX prenyl protease 1): 6.76 µM (active)
